Earlier results as cited in patent publication US20140303128A1, “TRANSMUCOSAL HORMONE DELIVERY SYSTEM” (priority 2013, published 2014).

Experiments:
[1] = smoking a cigarette (WO 03/055486 A1)
[2] = pH 6.8

CN1CCCC1c1cccnc1 (centres unmarked) [nicotine]
time to peak of plasma nicotine levels [1]: about 10 minutes
nicotine in the free base form [2]: about 10%
